Assay results as given in PMC8065974 (Biomedicines, 2021).
Like-named read-outs stand apart in the source and are kept apart here.

Experiments:
Assay type in all cases: in vivo, mice (C57BL/6J)
[1] = system: unilateral ureteral obstruction (UUO) mouse model; test: Curative treatment in UUO-induced tubulointerstitial fibrosis: immunohistochemistry and Sirius red histology; conditions: curative: 25 mg/kg daily gavage from day 3 after UUO for 5 days; vs UUO + vehicle; n = 7
Procedure: The unilateral ureteral ligation was performed as previously described. Briefly, under oxygen-isoflurane anesthesia and through a longitudinal, left abdominal incision, the ureter was exposed and ligated with a 6/0 nylon thread at the uretero-pelvic junction. In sham operations, the ureter was exposed but not ligated and repositioned. To reduce pain Buprenorphine (0.01 mg/kg) (Buprecare […], France) was injected i.p before surgery and 12 h later. […] A. borbonica polyphenol extract (25 mg/kg) or CA (25 mg/kg) were resuspended in distilled water just before gavage. The control group received only the vehicle (distilled water). At the end of the different protocols, mice were sacrificed and the kidneys were removed, and a transverse section was fixed in Carnoy's solution for 24 h and subsequently embedded in paraffin for immuno-histological analysis. Several pieces of renal cortex were snap-frozen in liquid nitrogen and stored at -80 °C for mRNA, enzyme activities and MS/MS analysis. Kidneys were fixed in Carnoy's solution, dehydrated and embedded in paraffin. From kidney sections, routine histology and immunohistological staining and analysis were performed as previously described. Three to four μm thickness sections were cut and used for routine staining (hematoxylin-eosin and Sirius red staining) and immunohistochemistry. […] For immunohistochemistry, mouse renal tissue was first de-waxed in toluene and rehydrated through a series of graded ethanol washes before incubation with 3% hydrogen peroxide for 10 min at room temperature to block endogenous peroxidase activity. […] The sections were subsequently stained with the Dako Envision system ([…] (primary antibodies from mouse) and K4002 (primary antibodies from rabbit)) according to manufacturer's instruction. Sections were finally counterstained with hematoxylin. Negative controls for the immunohistochemical procedures included substitution of the primary antibody with nonimmune sera at a similar immunoglobin concentration. […]

[2] = system: protein carbonyl in obstructed kidney; test: Curative treatment in UUO: protein carbonylation (carbonyl ELISA); conditions: curative: 25 mg/kg, 5 days; vs UUO + vehicle
Procedure: The protein carbonylation was determined as described previously by the carbonyl ELISA assay based on the recognition of protein-bound DNPH in carbonylated proteins with an anti-DNP antibody.

[3] = Plasma and kidney pharmacokinetics after a single oral dose of CA in UUO mice; conditions: single oral dose of CA 25 mg/kg, 3 days-UUO mice; for Cmax: n = 3/time, read-out: Cmax (peak plasma concentration)
Procedure: For pharmacokinetics study, the animals were submitted to UUO and 3 days later they were fasted overnight and then treated with a single dose of CA (25 mg/kg) or vehicle (n = 3/group). Blood samples (90 µL) were collected at time 0 (before treatment), 30 min, 60 min, 180 min and 360 min post-treatment. CA concentrations were measured by UPLC-HESI-Q-orbitrap (Q Exactive Plus).
To this end, three days after UUO, mice were administrated by oral route a unique dose of CA (25 mg/kg) and then were sacrificed at 30, 60, 180 and 360 min.

[4] = system: mRNA of inflammatory, fibrotic and antioxidant genes in obstructed kidney; test: Curative treatment in UUO: RT-qPCR of obstructed kidney; conditions: curative: 25 mg/kg daily gavage from day 3 after UUO for 5 days
Procedure: The unilateral ureteral ligation was performed as previously described. Briefly, under oxygen-isoflurane anesthesia and through a longitudinal, left abdominal incision, the ureter was exposed and ligated with a 6/0 nylon thread at the uretero-pelvic junction. In sham operations, the ureter was exposed but not ligated and repositioned. To reduce pain Buprenorphine (0.01 mg/kg) (Buprecare […], France) was injected i.p before surgery and 12 h later. […] A. borbonica polyphenol extract (25 mg/kg) or CA (25 mg/kg) were resuspended in distilled water just before gavage. The control group received only the vehicle (distilled water). At the end of the different protocols, mice were sacrificed and the kidneys were removed, and a transverse section was fixed in Carnoy's solution for 24 h and subsequently embedded in paraffin for immuno-histological analysis. Several pieces of renal cortex were snap-frozen in liquid nitrogen and stored at -80 °C for mRNA, enzyme activities and MS/MS analysis. Total RNA was isolated from mouse kidneys with TRIzol^TM reagent (Invitrogen). […] The quantitative real-time polymerase chain reaction was performed in a 96 well plate using SYBR green^TM master mix (Eurogentec). Analysis of GAPDH was performed to normalize gene expression and the relative mRNA fold changes between groups were calculated using the 2^-^ΔΔ^Ct method.

[5] = system: Mn-SOD, Cu/Zn-SOD, GPX, CAT activities in obstructed kidney; test: Curative treatment in UUO: antioxidant enzyme activities in kidney tissue; conditions: curative: 25 mg/kg, 5 days; vs UUO + vehicle
Procedure: After centrifugation (5000× g[…], for 10 min), the supernatant was used for protein quantification and enzymatic assays. The total protein level of lysate was quantified by the bicinchoninic acid assay (BCA). SOD activity was assayed by monitoring the rate of acetylated cytochrome c reduction by superoxide radicals generated by the xanthine/xanthine oxidase system. Measurements were performed in a reagent buffer (xanthine oxidase, xanthine (0.5 mM), cytochrome c (0.2 mM), KH2PO4 (50 mM), EDTA (2 mM), pH 7.8) at 25 °C. The specific MnSOD activities were determined in the same conditions after incubation of samples with NaCN (1 mM) which inhibits Cu/ZnSOD activities. Assays were monitored by spectrophotometry at 560 nm. SOD activities were calculated using a calibration standard curve of SOD (up to 6 unit/mg). Total SOD, MnSOD and resulting Cu/ZnSOD activities were expressed as international catalytic units per mg of proteins. The total activity of glutathione peroxidase (GPX) was determined with cumene hydroperoxide as substrate. The rate of glutathione oxidized by cumene hydroperoxide (6.5 mM) was evaluated by the decrease in NADPH (0.12 mM in Tris buffer) at 340 nm in the presence of NaCN (10 mM), reduced glutathione (0.25 mM) and glutathione reductase (1 U/mL) in Tris buffer (50 mM, pH 8). GPX activity was expressed as international units per gram of proteins. The catalase (CAT) activity assay was carried out on 40 µg of protein lysate in 25 mM Tris–HCl (pH 7.5). Blanks were measured at 240 nm just before adding 80 µL of H2O2 (10 mM final) to start the reaction. Catalase activity was determined by measuring the absorbance at 240 nm and was calculated using a calibration standard curve of an increasing amount of catalase between 12.5 and 125 unit/mL. Catalase activity was expressed as international catalytic units per mg of proteins.

[6] = Biodistribution of caffeic acid and ferulic acid after A. borbonica extract (UPLC-MS); conditions: for concentration at 24 h: C57BL/6J, mouse, oral, 25 mg/kg; for Concentration in urine: urine collected overnight
Procedure: Polyphenolic extract from A. borbonica was prepared by dissolving 1 g of crushed leaves in 25 mL of an aqueous acetonic solution (70%, v/v). After incubation at 4 °C for 90 min, the mixture was centrifuged at 3500× g […] at 4 °C for 20 min and polyphenol-rich supernatant was collected and stored at −80 °C until analysis. Identification of polyphenols was carried out by ultra-high-performance liquid chromatography (UHPLC) coupled with diode array detection and a HESI-Orbitrap mass spectrometer (Q Exactive Plus, Thermo Fisher). A 10 µL sample volume was injected using an UHPLC system equipped with a Thermo Fisher Ultimate 3000 series WPS-3000 RS autosampler and then separated on a PFP column (2.6 μm, 100 mm × 2.1 mm, Phenomenex, Torrance, CA, USA). The column was eluted with a gradient mixture of 0.1% formic acid in water (A) and 0.1% formic acid in acetonitrile (B) at the flow rate of 0.450 mL/min, with 5% B at 0.00 to 0.1 min, 35% B at 0.1 to 7.1 min, 95% B at 7.2 to 7.9 min and 5% B at 8.0 to 10 min. The column temperature was held at 30 °C and the detection wavelengths were set to 280 and 310 nm.
For mass spectrometer conditions, a Heated Electrospray Ionization source II (HESI II) was used. Nitrogen was used as drying gas. The mass spectrometric conditions were optimized as follows: spray voltage = 2.8 kV, capillary temperature = 350 °C, sheath gas flow rate = 60 units, aux gas flow rate = 20 units and S lens RF level = 50. Mass spectra were registered in full scan mode from m/z 100 to 1500 in negative ion mode at a resolving power of 70,000 FWHM at m/z 400. The automatic gain control (AGC) was set at 1e6. The MS/MS spectra were obtained by applying a relatively higher energy collisional dissociation (HCD) energy of 25%.
For biodistribution study, one day before sacrifice animals were placed in metabolic cages to collect urine overnight. CA and its metabolites were measured by UPLC-MS/MS in liver and kidney tissues and urine.

[7] = DESI-HR/MS imaging of obstructed kidney; conditions: 1 h post oral administration of CA 25 mg/kg, UUO mice
Procedure: The 2D automated Omni Spray Kidney tissues were flash-frozen in nitrogen and stored at −80 °C before DESI-HR/MS imaging. For DESI-MS imaging and histology, 12 μm thickness kidney sections were collected and mounted on SuperFrost™ Plus glass slides.
The 2D automated Omni Spray ion source from Prosolia Inc. (Indianapolis, IN, USA) coupled to a Q-Exactive™ Plus mass spectrometer (Thermo Fisher Scientific, Bremen, Germany) was used to perform the mass spectrometry imaging experiment. A solution of methanol with 0.1% formic acid (HPLC-MS grade, Carlo Erba) was used as the extraction and ionization spray solvent, delivered by a syringe pump at a flow rate of 5 μL/min. All imaging experiments were carried out with the following experimental conditions including source parameters: 2.8 kV capillary voltage, 250 °C capillary temperature, 60% S-lens RF level and 86 psi nitrogen nebulizing gas pressure, and including geometrical parameters: ∼1 mm spray tip-to-surface distance and a spray incident angle of 60°. Mass spectra were registered in full scan mode with the mass spectrometer operating in negative mode. Survey full scan mass spectra were acquired in the 50 to 500 m/z range at resolving power 70,000 (at m/z 400) with an automatic gain control (AGC) target of 3^6 and maximum injection time of 200 ms. […]

[8] = C57BL/6J, mouse, contralateral kidney, read-out: AUC (0-360) in contralateral kidney (converted)
[9] = C57BL/6J, mouse, contralateral kidney, read-out: concentration in contralateral kidney one hour after CA administration
[10] = C57BL/6J, mouse, obstructed kidney, read-out: AUC (0-360) in obstructed kidney (converted)
[11] = C57BL/6J, mouse, obstructed kidney, read-out: concentration in obstructed kidney one hour after CA administration
[12] = C57BL/6J, mouse, plasma, 0 to 360 min, read-out: AUC (0-360) in plasma (converted)
[13] = liver, read-out: Concentration in liver
[14] = UUO mice after ingestion of 25 mg/kg A. borbonica extract (gavage), n = 7, mean ± SD

Row | AUC(0-t) [3, 8] [µM·h] | concentration at 1 h [3, 9] [µM] | AUC(0-t) [3, 10] [µM·h] | concentration at 1 h [3, 11] [µM] | AUC(0-t) [3, 12] [µM·h] | Cmax ([3]; C57BL/6J, mouse, plasma) [µM] | tmax ([3]; plasma) | concentration at 24 h [6, 13] [µM] | Concentration in urine [6, 14] [µM] | SMILES | other results
1 | 1.67 | 0.3 ± 0.1 | 14.7 | 5.3 ± 1.1 | 82.7 | 50.5 | 30 min | 0.037 ± 0.001 | 96.599 ± 19.704 | O=C(O)/C=C/c1ccc(O)c(O)c1 [Caffeic acid, caffeic acid] | extracellular matrix accumulation / renal tubulointerstitial fibrosis (Sirius red staining) [1]: significant protective effect; macrophage infiltration (F4/80 immunostaining) [1]: significant protective effect; myofibroblast appearance/accumulation (α-SMA immunostaining) [1]: significant protective effect; UUO-induced increase in protein carbonyl level in obstructed kidney [2]: slight decrease in carbonyl level which did not reach statistical significance; tmax ([3]; C57BL/6J, mouse, plasma, po, 25 mg/kg, plasma, read-out: tmax): ≤ 30 min; bioavailability ([3]; C57BL/6J, mouse, plasma, read-out: Bioavailability F): 0.4%; Nrf2 mRNA expression [4]: significant increase; UUO-induced mRNA expression of inflammatory and fibrotic genes (Tgf-β, Tnf-α, Nf-κB, Mcp1, Fn, Col I, Col III) ([4]; vs UUO + vehicle): downregulated; CAT enzyme activity in obstructed kidney [5]: significantly increased; Cu/Zn-SOD enzyme activity in obstructed kidney [5]: significantly increased; GPX enzyme activity in obstructed kidney [5]: not significantly different; concentration at 24 h ([6]; obstructed kidney, read-out: Concentration in obstructed kidney): 0.144 ± 0.013 µM; Concentration in obstructed kidney ([6]; UUO mice after ingestion of 25 mg/kg A. borbonica extract (gavage), 24 h after administration, n = 7, mean ± SD): 0.144 ± 0.013 µM; Concentration in urine ([6]; UUO mice after ingestion of 25 mg/kg A. borbonica extract (gavage), n = 7, mean ± SD, listed as CA): 96.599 ± 19.704 µM
2 | 1.64 | 0.4 ± 0.1 | 17.9 | 4.5 ± 0.8 | 77.5 | 68.3 ± 8.3 | same tmax as CA | 0.426 ± 0.099 | 38.002 ± 5.021 | COc1cc(/C=C/C(=O)O)ccc1O [Ferulic acid, ferulic acid] | spatial distribution in obstructed kidney (DESI-HR/MS imaging) [7]: in the renal cortex; Concentration in urine ([6]; UUO mice after ingestion of 25 mg/kg A. borbonica extract (gavage), n = 7, mean ± SD, listed as FA): 38.002 ± 5.021 µM
